# Experimental data as given in patent publication EP0542497A1, “Heterocyclic compounds” (THE WELLCOME FOUNDATION LIMITED, priority 1991, dated 1993).
# Tested on: Mycobacterium tuberculosis
# Experiment: In vitro activity vs Mycobacterium tuberculosis, proportion method
# Assay type: cell-based
# Settings: ten(10) clinical isolates of Myco. tuberculosis (including several multiply-resistant strains), read-out: average MIC
structure (smiles),measurement,value
"CCC(CC)n1c(C)cc2c3c(N)nc(N)nc3ccc21 [Compound 2, 1,3-Diamino-7-(1-ethylpropyl)-8-methyl-7H-pyrrolo(3,2-f)quinazoline]",M I C,3.2 µg/mL
